Article PMC12068008 (International Journal of Molecular Sciences, 2024)
Like-named read-outs stand apart in the source and are kept apart here.

Legend:
[1] = DPPH radical scavenging assay; details: for IC50: 30 min incubation, 25 °C; for antioxidative ability (DPPH): 0.01, 0.1 and 1 mM, 30 min
Experimental: DPPH (2,2-diphenyl-1-picrylhydrazyl) radical scavenging assay was used to assess free-radical scavenging activity of synthesized compounds. Initially, 1 × 10^−4 M working solution of DPPH was prepared, and 350 µL was added to 350 µL of the solution of each compound. The final concentrations of the compounds (Q, 2a, and 2b) in the samples were 1 × 10^−3 M, 1 × 10^−4 M, and 1 × 10^−5 M. The control included ethanol only and DPPH–ethanol solution without compounds. The mixtures were incubated at 25 °C in the dark for 30 min. After incubation, the absorbance of the samples at 517 nm was measured in duplicate by using a UV/Vis spectrophotometer (Lambda 35, Perkin Elmer, Waltham, MA, USA). The DPPH radical scavenging ability was calculated using the following equation:(1) Antioxidative activity(%)=Acontrol−Asample/Acontrol×100% where Asample and Acontrol represent the absorbance at 517 nm of the sample and control, respectively. All samples were analysed in duplicate.

HeLa cells = experiment: SRB assay, HeLa cells; format: cell-based; details: Homo sapiens, HeLa, 72 h, read-out: IC50 HeLa
Experimental: (§1) All cell lines were cultured in Dulbecco’s Modified Eagle’s Medium (DMEM) with 4500 mg/L glucose and L-glutamine (Capricorn Scientific, Ebsdorfergrund, Germany), supplemented with 10% foetal bovine serum (PAN-Biotech, Aidenbach, Germany), 10,000 U/mL penicillin, and 10 mg/mL streptomycin solution (Capricorn Scientific) under standard conditions at 37 °C in a humidified 5% CO2 atmosphere (ESCO, Lifesciences Group, Singapore).
(§2) Cells were seeded on a 96-well plate (Thermo Fisher Scientific, Waltham, MA, USA) at 2 × 10^3 cells per well in DMEM medium. For the analysis of the concentration- and time-dependent effect of the analysed compounds, cell monolayers were treated 24 h after seeding with concentrations 1 × 10^−6, 1 × 10^−5, and 1 × 10^−4 M for 24, 48, or 72 h. Cell viability was detected using sulforhodamine B (SRB) assay, based on the staining of cellular proteins. The assay was performed according to the procedure described by Skehan et al.. The cells were fixed with 10% trichloroacetic acid (TCA, CARLO ERBA Reagents GmbH, Emmendingen, Germany) for 1 h at 4 °C, washed with water, and stained for 15 min with 0.4% SRB (Sigma-Aldrich Chemie GmbH, Steinheim, Germany) in 1% acetic acid. The unbound SRB dye was rinsed with 1% acetic acid, while the protein-bound dye was extracted with a 10 mM Tris base (Sigma-Aldrich). […] The results were expressed as a percentage of the control, where the cell growth of the control is set to 100%. […] The selectivity index (SI) was determined according to the following formula:(2) SI=IC50 for fibroblast cell line/IC50 for tumour cell line
(§3) The assay was performed two times in 4 replicates for every experimental group. The statistical significance of differences between treated and untreated cells was estimated by the independent Student’s t-test, with the level of significance set at p < 0.05.

eeAChE = eeAChE (Electrophorus electricus, UniProt O42275); experiment: biochemical; details: read-out: Percentage Inhibition AChE
Experimental: The abilities of compounds to inhibit AChE and BuChE activity were determined following Ellman’s procedure, with AChI and BuChI as the enzyme substrate, respectively, and DTNB as a chromogenic reagent. AChE’s and BuChE’s working solutions were prepared at 20 mM TRIS and deionized water, respectively. AChI and BuChI solutions were prepared in deionized water. […] Stock solutions (10 mM) of investigated compounds were prepared daily by dissolving solid compounds in DMSO. The reaction mixture containing phosphate buffer, DTNB, enzyme, and compound was preincubated 30 min at 37 °C. After the preincubation time, the enzyme reaction was initiated by adding appropriate substrate and left to incubate for 6 min. After incubation, 0.1 M SDS was added to stop the reaction. […] A blank assay, containing all components except the enzyme, was used to account for non-enzyme reactions. The control solution contained all components except the inhibitor. All experiments were conducted in triplicate, and the results are expressed as the mean percentage enzyme activity compared to the control value. IC50 values were determined graphically using Origin 9 Microsoft Windows.

MDA-MB-468 cells = experiment: SRB assay, MDA-MB-468 cells; format: cell-based, human; details: Homo sapiens, MDA-MB-468, 72 h, read-out: IC50 MDA-468
Experimental: as §1, with “Two human breast cancer cell lines, MDA-MB-231 (HTB-26) and MDA-MB-468 (HTB-132), human cervical cancer cell line HeLa (CCL-2), and MRC-5 (CCL-171) fibroblasts were purchased from the American Type Culture Collection (ATCC, Manassas, VA, USA). All” for “All”
Cells were seeded on a 96-well plate (Thermo Fisher Scientific, Waltham, MA, USA) at 2 × 10^3 cells per well in DMEM medium. For the analysis of the concentration- and time-dependent effect of the analysed compounds, cell monolayers were treated 24 h after seeding with concentrations 1 × 10^−6, 1 × 10^−5, and 1 × 10^−4 M for 24, 48, or 72 h. Cell viability was detected using sulforhodamine B (SRB) assay, based on the staining of cellular proteins. The assay was performed according to the procedure described by Skehan et al.. The cells were fixed with 10% trichloroacetic acid (TCA, CARLO ERBA Reagents GmbH, Emmendingen, Germany) for 1 h at 4 °C, washed with water, and stained for 15 min with 0.4% SRB (Sigma-Aldrich Chemie GmbH, Steinheim, Germany) in 1% acetic acid. The unbound SRB dye was rinsed with 1% acetic acid, while the protein-bound dye was extracted with a 10 mM Tris base (Sigma-Aldrich). The absorbance was measured at 550 nm with a reference wavelength of 690 nm in a microplate reader (Wallac, VICTOR2 1420 Multilabel counter, PerkinElmer, Turku, Finland). The results were expressed as a percentage of the control, where the cell growth of the control is set to 100%. IC50, defined as the concentration that caused a 50% loss of cell growth, was calculated by non-linear regression analysis with the ED50plus v1.0 software. The selectivity index (SI) was determined according to the following formula:(2) SI=IC50 for fibroblast cell line/IC50 for tumour cell line
as §3

Na^+, K^+-ATPase = details: cited from earlier work
MDA-MB-231 cells = experiment: SRB assay, MDA-MB-231 cells; format: cell-based; details: Homo sapiens, MDA-MB-231, 72 h, read-out: IC50 MDA-231
Experimental: as §1, §2, §3

MRC-5 cells = experiment: SRB assay, MRC-5 cells; format: cell-based; details: Homo sapiens, MRC5, 72 h, read-out: IC50 MRC
Experimental: as §1, with “Two human breast cancer cell lines, MDA-MB-231 (HTB-26) and MDA-MB-468 (HTB-132), human cervical cancer cell line HeLa (CCL-2), and MRC-5 (CCL-171) fibroblasts were purchased from the American Type Culture Collection (ATCC, Manassas, VA, USA). All” for “All”
Cells were seeded on a 96-well plate (Thermo Fisher Scientific, Waltham, MA, USA) at 2 × 10^3 cells per well in DMEM medium. For the analysis of the concentration- and time-dependent effect of the analysed compounds, cell monolayers were treated 24 h after seeding with concentrations 1 × 10^−6, 1 × 10^−5, and 1 × 10^−4 M for 24, 48, or 72 h. Cell viability was detected using sulforhodamine B (SRB) assay, based on the staining of cellular proteins. The assay was performed according to the procedure described by Skehan et al.. The cells were fixed with 10% trichloroacetic acid (TCA, CARLO ERBA Reagents GmbH, Emmendingen, Germany) for 1 h at 4 °C, washed with water, and stained for 15 min with 0.4% SRB (Sigma-Aldrich Chemie GmbH, Steinheim, Germany) in 1% acetic acid. The unbound SRB dye was rinsed with 1% acetic acid, while the protein-bound dye was extracted with a 10 mM Tris base (Sigma-Aldrich). The absorbance was measured at 550 nm with a reference wavelength of 690 nm in a microplate reader (Wallac, VICTOR2 1420 Multilabel counter, PerkinElmer, Turku, Finland). The results were expressed as a percentage of the control, where the cell growth of the control is set to 100%. […] The selectivity index (SI) was determined according to the following formula:(2) SI=IC50 for fibroblast cell line/IC50 for tumour cell line […]

eqBuChE = eqBuChE (Equus caballus, UniProt P81908); experiment: BuChE inhibition (Ellman's procedure); format: biochemical; details: for inhibition at 100 µM: read-out: Percentage Inhibition BuChE
Experimental: The abilities of compounds to inhibit AChE and BuChE activity were determined following Ellman’s procedure, with AChI and BuChI as the enzyme substrate, respectively, and DTNB as a chromogenic reagent. AChE’s and BuChE’s working solutions were prepared at 20 mM TRIS and deionized water, respectively. AChI and BuChI solutions were prepared in deionized water. A 0.01 M DTNB solution was prepared with 0.1 M phosphate buffer (pH 7) containing 0.15% (w/v) sodium bicarbonate. Stock solutions (10 mM) of investigated compounds were prepared daily by dissolving solid compounds in DMSO. The reaction mixture containing phosphate buffer, DTNB, enzyme, and compound was preincubated 30 min at 37 °C. After the preincubation time, the enzyme reaction was initiated by adding appropriate substrate and left to incubate for 6 min. After incubation, 0.1 M SDS was added to stop the reaction. Absorbance measurements were performed using a UV/Vis spectrophotometer (Lambda 35, Perkin Elmer), measuring absorbance at 412 nm. A blank assay, containing all components except the enzyme, was used to account for non-enzyme reactions. The control solution contained all components except the inhibitor. All experiments were conducted in triplicate, and the results are expressed as the mean percentage enzyme activity compared to the control value. IC50 values were determined graphically using Origin 9 Microsoft Windows.

physchem = format: physicochemical; details: shake flask, n-octanol/water, 25 °C, 1 × 10^−4 M; read-out: logP, experimentally obtained
Experimental: To measure the lipophilicity (expressed as the partition coefficient) of the synthesized compounds and their constituents, using a “shake-flask” method, a two-phase system composed of n-octanol and deionized water was used. The stock solutions of the compounds were diluted with water to the concentration of 1 × 10^−4 M, and this solution was used for further investigation. […] The concentration of the compounds was calculated from their extinction coefficient at 260 nm that was previously determined.

eqBuChE, sequence (P81908 whole entry): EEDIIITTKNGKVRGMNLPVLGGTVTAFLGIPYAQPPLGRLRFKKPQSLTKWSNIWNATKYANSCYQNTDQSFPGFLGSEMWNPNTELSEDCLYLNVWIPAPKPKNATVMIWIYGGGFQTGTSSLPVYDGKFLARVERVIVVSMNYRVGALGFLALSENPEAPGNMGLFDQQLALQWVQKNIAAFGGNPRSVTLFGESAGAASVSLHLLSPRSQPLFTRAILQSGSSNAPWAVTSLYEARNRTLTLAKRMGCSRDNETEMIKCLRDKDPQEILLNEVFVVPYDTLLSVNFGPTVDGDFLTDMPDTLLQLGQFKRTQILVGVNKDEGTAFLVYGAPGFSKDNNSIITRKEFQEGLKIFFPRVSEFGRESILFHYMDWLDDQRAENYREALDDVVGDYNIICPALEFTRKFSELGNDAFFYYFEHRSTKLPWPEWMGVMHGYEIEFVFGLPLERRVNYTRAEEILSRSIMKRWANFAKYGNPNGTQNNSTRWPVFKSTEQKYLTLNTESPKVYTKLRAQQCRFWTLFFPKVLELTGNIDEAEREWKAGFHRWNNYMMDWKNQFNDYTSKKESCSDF
eeAChE, sequence (O42275 24-633): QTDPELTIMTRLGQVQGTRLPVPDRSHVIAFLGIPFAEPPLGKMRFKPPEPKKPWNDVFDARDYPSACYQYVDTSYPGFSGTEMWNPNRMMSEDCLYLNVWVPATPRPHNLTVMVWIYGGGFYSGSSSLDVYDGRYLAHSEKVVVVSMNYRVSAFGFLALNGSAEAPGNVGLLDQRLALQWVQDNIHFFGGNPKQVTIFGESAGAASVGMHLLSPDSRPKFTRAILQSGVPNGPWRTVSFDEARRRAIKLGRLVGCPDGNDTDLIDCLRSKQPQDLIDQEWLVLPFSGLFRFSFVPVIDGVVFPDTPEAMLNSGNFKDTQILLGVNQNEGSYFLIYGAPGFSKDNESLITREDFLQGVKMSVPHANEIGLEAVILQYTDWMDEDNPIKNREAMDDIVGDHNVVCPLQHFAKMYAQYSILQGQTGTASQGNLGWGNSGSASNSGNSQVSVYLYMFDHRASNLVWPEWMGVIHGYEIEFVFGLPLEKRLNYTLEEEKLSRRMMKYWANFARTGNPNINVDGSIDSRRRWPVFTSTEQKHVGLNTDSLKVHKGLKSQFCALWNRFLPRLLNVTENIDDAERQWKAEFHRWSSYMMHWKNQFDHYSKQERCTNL

| Structure (SMILES) | IC50 [1] [µM] | IC50 (HeLa cells) [µM] | inhibition at 100 µM (eeAChE) [%] | IC50 (MDA-MB-468 cells) [µM] | IC50 (Na^+, K^+-ATPase; literature value ref 36) [µM] | IC50 (MDA-MB-231 cells) [µM] | IC50 (MRC-5 cells) [µM] | IC50 (eqBuChE) [µM] | inhibition at 100 µM (eqBuChE) [%] | antioxidative ability (DPPH) [1] | logP at 30 min (physchem) | IC50 (Na^+, K^+-ATPase; literature value ref 35) [µM] |
| --- | --- | --- | --- | --- | --- | --- | --- | --- | --- | --- | --- | --- |
| O=C1O[C@H]([C@@H](O)CO)C(O)=C1O [Ascorbic acid] | 0.62 | – | – | – | – | – | – | – | – | – | – | – |
| O=c1c(O)c(-c2ccc(O)c(O)c2)oc2cc(O)cc(O)c12 [Quercetin, reference compound] | 19.3 | 15.1 ± 2.67 | 58 | 65.9 ± 3.3 | 46.3 | 76.6 ± 3.8 | 10.4 ± 0.52 | 22.1 | 72 | – | – | – |
| COc1cc2c(cc1OC)CNCC2 [Compound 1b, 6,7-dimethoxy-1,2,3,4-tetrahydroisoquinoline, reference compound] | – | – | 14.1 | – | – | – | – | – | 17.7 | did not show antioxidative ability | 1.14 | – |
| c1ccc2c(c1)CCNC2 [Compound 1a, 1,2,3,4-tetrahydroisoquinoline, reference compound] | – | – | 2 | – | – | – | – | – | 2 | did not show antioxidative ability | 1.4 | 25000 |
